Assays:
pmeLUC = target: T1, pmeLUC (Photinus pyralis, UniProt P08659, N119G/N50D); assay: Response of HEK293-pmeLUC cells to extracellular nucleotides (affinity and selectivity of the pmeLUC probe, luminescence); assay type: cell-based; settings: HEK293-pmeLUC cells; for sensitivity of pmeLUC to other nucleotides: FIG. 2A
T1 construct: expressed in transfected cells
Description: (§1) ATP was measured in the custom-made luminometer described by Rizzuto and co-workers (Brini et al., 1999; Jouaville et al., 1999). For experiments, cells were plated onto 13 mm coverslips and were placed in a 37° C. thermostatted chamber (diameter 15 mm, height 2 mm) and perfused with a saline solution supplemented with luciferin at a concentration of 5 μM. The chamber was held in a photomultiplier kept in a dark refrigerated (4° C.) box. Light emission was detected by a Thorn EMI photon counting board installed in an IBM-compatible computer. The board allowed storing of the data in the computer memory for further analysis. During the experiments the thermostatted chamber was continuously perfused with buffer by means of a Gilson peristaltic pump. Alternatively, ATP was measured in the supernatants using soluble luciferase in a Firezyme luminometer as previously described (Baricordi et al., 1999; Solini et al, 2004; Zanovello et al., 1990).
Affinity of pmeLUC for ATP is rather low, with a threshold of about 10 μM, however, subsequent ATP additions elicit further increases in light emission that allow building a calibration curve (FIG. 2B). Importantly, pmeLUC is insensitive to all other nucleotides tested (ADP, UTP, UDP and GTP) (FIG. 2A).

human P2X7R = target: T2, human P2X7R (Homo sapiens, UniProt Q99572); assay: ATP release through the P2X7 receptor in HEK293-hP2X7/pmeLUC cells, pmeLUC luminescence; assay type: cell-based
T2 construct: expressed in transfected cells; host or cells: HEK293 (HEK293-hP2X7/pmeLUC)
T2 sequence (Q99572 1-595): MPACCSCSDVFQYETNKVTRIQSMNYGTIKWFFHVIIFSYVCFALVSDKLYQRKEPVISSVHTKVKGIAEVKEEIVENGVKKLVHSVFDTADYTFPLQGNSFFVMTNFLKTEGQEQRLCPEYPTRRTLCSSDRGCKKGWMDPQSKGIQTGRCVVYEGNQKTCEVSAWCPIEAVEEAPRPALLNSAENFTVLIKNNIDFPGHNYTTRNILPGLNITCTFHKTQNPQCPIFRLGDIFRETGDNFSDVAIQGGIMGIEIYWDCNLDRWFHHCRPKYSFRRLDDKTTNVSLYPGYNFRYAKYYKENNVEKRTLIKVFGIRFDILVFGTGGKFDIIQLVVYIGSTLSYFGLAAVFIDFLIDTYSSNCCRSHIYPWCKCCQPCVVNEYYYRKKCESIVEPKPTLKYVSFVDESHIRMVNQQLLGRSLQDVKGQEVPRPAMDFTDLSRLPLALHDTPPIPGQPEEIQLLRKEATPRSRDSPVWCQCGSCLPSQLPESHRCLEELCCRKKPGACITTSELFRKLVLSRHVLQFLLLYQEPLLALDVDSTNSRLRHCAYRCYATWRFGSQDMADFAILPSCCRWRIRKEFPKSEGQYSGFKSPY
Description: (§2) HEK293 cells were cultured in DMEM-F12 (Sigma-Aldrich). Media were supplemented with 10% heat-inactivated FBS, 100 U/ml penicillin and 100 μg/ml streptomycin (Invitrogen corporation, San Giuliano Milanese, Italy). ACN neuroblastoma cells were cultured in DMEM supplemented with MEM non-essential amino acid solution 100× (Sigma-Aldrich). HEK293 cells were transfected with the calcium phosphate method. Cells transiently expressing the pmeLUC construct were assayed 36 hours after transfection. Clones stably expressing pmeLUC or the P2X7R were generated by culture of the transfected cells in the presence of G418 (0.8 mg/ml, added 48 hours after transfection) for 3 weeks. Stable P2X7- or pmeLUC-expressing clones were kept in the continuous presence of 0.2 mg/ml of G418 sulphate (Geneticin) (Calbiochem, la Jolla, Calif.). ACN cells were transfected with pmeLUC by lipofectamine (Invitrogen) and tested 24 hours after transfection. Briefly, cells were incubated in 250 μl serum-free transfection medium (OPTIMEM) in the presence of lipofectamine-plus-DNA (0.4 μg per well). After 3 hours incubation 1 ml of DMEM plus 10% FBS supplemented with MEM non-essential amino acid solution 100× (Sigma-Aldrich) was added. Cells were assayed 24 hours after transfection. In order to allow a high level of plasma membrane expression of the transfected constructs, cells were incubated overnight in the presence of 1 mM DTT (Mezghrani et al, 2001). Furthermore, they were also kept at room temperature (21° C.) for two hours prior to transfer into the thermostated luminometer chamber.
as §1
Early experiments carried out not only by the authors of the present invention had shown that supernatants from cells expressing the P2X7 receptor contained a high level of ATP, which was not due to an accelerated rate of cell lysis (Baricordi et al., 1999; Adinolfi et al., 2003; Solini et al., 2004). […] To test such hypothesis several HEK293 clones were generated stably transfected with the human or rat P2X7R (HEK293-hP2X7 or HEK293-rP2X7, respectively). These clones were then transfected with pmeLUC (HEK293-P2X7/pmeLUC).

rat P2X7R = target: T3, rat P2X7R (Rattus norvegicus, UniProt Q64663); assay: ATP release through the P2X7 receptor in HEK293-rP2X7/pmeLUC cells, pmeLUC luminescence; assay type: cell-based
T3 construct: expressed in transfected cells; host or cells: HEK293 (HEK293-rP2X7/pmeLUC)
T3 sequence (Q64663 1-595): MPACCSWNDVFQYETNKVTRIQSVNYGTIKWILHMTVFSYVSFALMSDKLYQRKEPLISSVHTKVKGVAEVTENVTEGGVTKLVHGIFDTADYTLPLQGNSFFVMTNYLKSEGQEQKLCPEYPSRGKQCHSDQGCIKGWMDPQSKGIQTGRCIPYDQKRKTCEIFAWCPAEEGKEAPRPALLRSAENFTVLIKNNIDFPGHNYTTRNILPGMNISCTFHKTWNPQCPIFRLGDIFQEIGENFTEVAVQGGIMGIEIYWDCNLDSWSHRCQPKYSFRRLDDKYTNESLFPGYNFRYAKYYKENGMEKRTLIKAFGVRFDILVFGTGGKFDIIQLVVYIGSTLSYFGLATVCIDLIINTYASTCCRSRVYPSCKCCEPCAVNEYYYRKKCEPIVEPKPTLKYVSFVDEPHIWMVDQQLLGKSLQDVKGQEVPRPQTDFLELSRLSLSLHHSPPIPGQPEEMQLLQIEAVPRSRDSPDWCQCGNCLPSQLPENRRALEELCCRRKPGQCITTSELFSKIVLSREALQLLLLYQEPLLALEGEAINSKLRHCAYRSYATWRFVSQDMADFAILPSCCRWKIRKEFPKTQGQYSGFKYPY
Description: as §2
ATP was measured in the custom-made luminometer described by Rizzuto and co-workers (Brini et al., 1999; Jouaville et al., 1999). […] Light emission was detected by a Thorn EMI photon counting board installed in an IBM-compatible computer. […] Alternatively, ATP was measured in the supernatants using soluble luciferase in a Firezyme luminometer as previously described (Baricordi et al., 1999; Solini et al, 2004; Zanovello et al., 1990). […]

J774 macrophage cells = assay: ATP release / photon emission in J774 macrophage cells expressing pmeLUC probe; assay type: cell-based, mouse; settings: ATP 5 μM to 1 mM, FIG. 6A
Description: (§3) Cells cultured in flasks for cell culture (75 cm^2) were transfected with a vector containing the produced chimeric probe, by transfection techniques more suitable for the cell line under examination. As experimental model established macrophage cells, named J774, and established pulmonary epithelial cells, named […], were used after being transfected with pmeLUC probe using TransFectin (Biorad) that ensure the major percent of positive cells for these cell lines.
(§4) 36 hours after transfection cells were removed from the bottom of flasks for trypsinization. Cell suspension was transferred in a Falcon tube (from 15 to 50 ml) and centrifuged at 1200 rpm at 20° C. and finally cell precipitate was re-suspended in DMEM medium supplemented with DTT (1 mM).
(§5) 50 μl of suspension containing transfected cells (corresponding to about 50.000 cells) were seeded in each well of the plate. Cells were incubated overnight.
(§6) The day after seeding cells were incubated with a saline solution (KRB: Krebs-Ringer modified buffer: 125 mM NaCl, 5 mM KCl, 1 mM Na3PO4, 1 mM MgSO4, 1 mM CaCl2, 5.5 mM glucose, 20 mM HEPES, pH 7.4, 37° C.) supplemented with luciferin (5 μM) and were directly contacted with a photomultiplier measuring photon emission by luciferase.

[1] = test system: A549 pulmonary epithelial cells; assay: ATP release / photon emission in A549 pulmonary epithelial cells expressing pmeLUC probe; assay type: cell-based, human; settings: ATP 5 μM to 1 mM, FIG. 7A
Description: as §3, §4, §5, §6

HEK293-pmeLUC cells = assay type: cell-based; settings: HEK293-pmeLUC cells (no P2X7R)
Description: as §2
(§7) ATP was measured in the custom-made luminometer described by Rizzuto and co-workers (Brini et al., 1999; Jouaville et al., 1999). […] Light emission was detected by a Thorn EMI photon counting board installed in an IBM-compatible computer. […] Alternatively, ATP was measured in the supernatants using soluble luciferase in a Firezyme luminometer as previously described (Baricordi et al., 1999; Solini et al, 2004; Zanovello et al., 1990).

native P2X7R = target: T4, native P2X7R (Homo sapiens, UniProt Q99572); assay: ATP release from ACN neuroblastoma cells transfected with pmeLUC; assay type: cell-based; settings: ACN neuroblastoma cells, FIG. 3E
T4 construct: the human ACN neuroblastoma, a cell line expressing the native P2X7R; endogenous in cells; host or cells: ACN human neuroblastoma cells, transiently transfected with pmeLUC as sensor
T4 sequence (Q99572 1-595): T2 sequence (Q99572 1-595)
Description: HEK293 cells were cultured in DMEM-F12 (Sigma-Aldrich). Media were supplemented with 10% heat-inactivated FBS, 100 U/ml penicillin and 100 μg/ml streptomycin (Invitrogen corporation, San Giuliano Milanese, Italy). ACN neuroblastoma cells were cultured in DMEM supplemented with MEM non-essential amino acid solution 100× (Sigma-Aldrich). HEK293 cells were transfected with the calcium phosphate method. Cells transiently expressing the pmeLUC construct were assayed 36 hours after transfection. Clones stably expressing pmeLUC or the P2X7R were generated by culture of the transfected cells in the presence of G418 (0.8 mg/ml, added 48 hours after transfection) for 3 weeks. Stable P2X7- or pmeLUC-expressing clones were kept in the continuous presence of 0.2 mg/ml of G418 sulphate (Geneticin) (Calbiochem, la Jolla, Calif.). ACN cells were transfected with pmeLUC by lipofectamine (Invitrogen) and tested 24 hours after transfection. […]
as §7
Differences in basal levels of luminescence emission are neutralized by expressing luminescence as percentage increase over basal (FIG. 3B), however, the higher basal luminescence of HEK293-hP2X7/pmeLUC might reflect a real increased level of pericellular ATP compared to HEK293-pmeLUC, rather than a higher expression of pmeLUC. In this case, reporting luminescence as percent increase over basal would mask such a difference in the extracellular ATP concentration. To clarify this issue, total pmeLUC protein was measured by western blotting (FIG. 3C). […] To measure quantitatively surface pmeLUC expression, different clones were analyzed by FACS. […]

HEK293-hP2X7 cells = assay: Extracellular ATP in supernatants of HEK293-hP2X7 cells, soluble luciferase; assay type: cell-based; settings: n=10, quiescent 220±34 nM
Description: as §1
(§8) As an independent proof that HEK293-P2X7 cells release a larger amount of ATP than mock-transfected HEK293 (HEK293-mock), extracellular ATP was measured in the supernatants using soluble luciferase. Quiescent HEK293-mock cells maintained an extracellular ATP concentration of 80±20 nM (n=12), compared to 220±34 nM (n=10) for HEK-hP2X7. […]

HEK293-mock cells = assay: Extracellular ATP in supernatants of HEK293-mock cells, soluble luciferase; assay type: cell-based
Description: as §1, §8

T1 sequence (P08659 with tags, fused parts or gaps N50D/N119G): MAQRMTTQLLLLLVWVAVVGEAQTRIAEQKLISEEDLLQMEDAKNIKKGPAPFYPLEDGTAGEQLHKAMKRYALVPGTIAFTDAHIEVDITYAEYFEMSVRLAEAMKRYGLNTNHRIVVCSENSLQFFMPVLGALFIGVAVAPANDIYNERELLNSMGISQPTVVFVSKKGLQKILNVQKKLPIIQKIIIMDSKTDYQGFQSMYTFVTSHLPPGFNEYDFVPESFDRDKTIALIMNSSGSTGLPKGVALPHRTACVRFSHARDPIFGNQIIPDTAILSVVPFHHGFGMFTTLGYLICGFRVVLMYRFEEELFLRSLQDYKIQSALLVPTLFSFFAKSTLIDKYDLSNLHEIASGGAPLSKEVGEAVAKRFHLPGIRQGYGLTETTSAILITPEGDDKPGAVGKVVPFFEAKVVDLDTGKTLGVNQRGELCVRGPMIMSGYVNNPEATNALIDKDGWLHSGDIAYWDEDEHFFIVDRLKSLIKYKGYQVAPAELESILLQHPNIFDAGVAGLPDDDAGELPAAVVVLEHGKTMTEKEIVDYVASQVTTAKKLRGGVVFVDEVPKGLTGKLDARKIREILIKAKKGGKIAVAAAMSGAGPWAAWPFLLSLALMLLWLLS

With Nc1ncnc2c1ncn2[C@@H]1O[C@H](COP(=O)(O)OP(=O)(O)O)[C@@H](O)[C@H]1O [ADP] the “sensitivity of pmeLUC to other nucleotides” value (pmeLUC) was “insensitive”.

With Nc1ncnc2c1ncn2[C@@H]1O[C@H](COP(=O)(O)OP(=O)(O)OP(=O)(O)O)[C@@H](O)[C@H]1O [ATP] the “threshold of pmeLUC for ATP (affinity)” value (pmeLUC; luminescence percent increase over basal) was “about 10 μM”, the “ATP concentration at which luminescence increase over control cells is detectable” value (human P2X7R; HEK293 cells transfected with human P2X7R, FIG. 4B) was “higher than 100 μM” and the “ATP concentration at which extra-increase in luminescence over control cells is detectable” value (rat P2X7R; HEK293 cells transfected with rat P2X7R, FIG. 4A) was 10 to 50 µM. The “photon emission by the pmeLUC probe on addition of outer ATP” value (J774 macrophage cells) was “proportional to ATP concentration applied” and the “photon emission by the pmeLUC probe on addition of outer ATP” value [1] was “proportional to ATP concentration applied”.

For Nc1ncnc2c1ncn2[C@@H]1O[C@H](COP(=O)(O)OP(=O)(O)OP(=O)(O)O)[C@@H](OC(=O)c2ccc(C(=O)c3ccccc3)cc2)[C@H]1O [BzATP, Benzoyl ATP], the “luminescence increase on addition of BzATP” value (HEK293-pmeLUC cells) was “not”, the “luminescence increase on addition of BzATP” value (human P2X7R; HEK293-hP2X7/pmeLUC cells) was “large luminescence increase” and the “peak ATP concentration from calibration of BzATP triggered luminescence increase” value (human P2X7R; HEK293-hP2X7/pmeLUC cells) was “about 250 μM”. For the same compound, the “luminescence increase on addition of BzATP” value (rat P2X7R; HEK293-rP2X7/pmeLUC cells (not shown)) was “large luminescence increase”, the “ATP release induced by BzATP” value (native P2X7R) was “large ATP release” and the “extracellular ATP level in supernatants after addition of BzATP” value (HEK293-hP2X7 cells) was “about 400±55 nM”. For the same compound, the “effect of BzATP on extracellular ATP in supernatants” value (HEK293-mock cells) was “no effect”.

For Nc1nc2c(ncn2[C@@H]2O[C@H](COP(=O)(O)OP(=O)(O)OP(=O)(O)O)[C@@H](O)[C@H]2O)c(=O)[nH]1 [GTP], the “sensitivity of pmeLUC to other nucleotides” value (pmeLUC) was “insensitive”.
